Test results: the METLIN SMRT retention time set (Domingo-Almenara et al. 2019)

Test: gradient 5% acetonitrile 3 min, to 50% in 2 min, to 85% in 15 min, held 3 min, 100 µL/min
Conditions: column: Zorbax Extend-C18 2.1 x 50 mm; eluents: water / acetonitrile, 0.1% formic acid
How it was run: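 A Zorbax Extend-C18 column (2.1 × 50 mm, 1.8 μm) run at 100 μL/min with water and acetonitrile, both containing 0.1% formic acid, separated mixtures of ~100 pure standards. The HPLC was coupled to a quadrupole time-of-flight mass spectrometer operated in positive and negative ionization mode, with dead and dwell volumes of 40 μL and 900 μL. Each retention time was taken from a computationally picked adduct peak that was then manually inspected.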

Row | Compound | RP-LC retention time
1 | COc1cccc(-c2noc(Cc3nnc(-c4cccc(Br)c4)o3)n2)c1OC | 1010 s
2 | Cc1ccc(Nc2c(-c3ccc(N4CCOCC4)cc3)nc3ncccn23)cc1Cl | 751 s
3 | CC(C)CCNC(=O)C1(C)Cn2nc(C(=O)NCc3ccccc3)cc2C(=O)N1C (configuration not stated) | 712 s
4 | CCOc1ccccc1NC(=O)Cn1c(=O)n(CC(N)=O)c(=O)c2oc3ccccc3c21 | 704 s
5 | COc1ccc(-c2ccnc3ncnn23)c(F)c1 | 681 s
6 | O=C(NCCCN1CCCc2ccccc21)C1CCc2nc(N3CCCCC3)ncc2C1 (configuration not stated) | 827 s
7 | Cc1onc(C(=O)N2CCc3c(c(-c4nncn4C)nn3C)C2)c1Cn1cc(Cl)cn1 | 649 s
8 | CN(CC1CCOC1)C(=O)NCc1ccc(F)cc1 (configuration not stated) | 669 s
9 | Clc1ccc(-c2cc3c(N4CCN(c5ccccn5)CC4)nccn3n2)cc1 | 727 s
10 | COc1ccc(N2C=C(C(=O)N3CCCCC3)S(=O)(=O)c3ccccc32)cc1 | 859 s
11 | CC1Oc2ccc(-c3csc(NC(=O)CCc4ccccc4)n3)cc2NC1=O (configuration not stated) | 1050 s
12 | COc1cccc(CNC(=O)N2CCC(n3c(-c4ccco4)nc4cccnc43)C2)c1 (configuration not stated) | 712 s
13 | CCOC(=O)Cc1ccc(NC(=O)N2CCC3(CC2)Nc2cc(F)ccc2-n2cccc23)cc1 | 1000 s
14 | Cc1sc(-c2cc(C(F)(F)F)[nH]n2)cc1S(=O)(=O)N1CCN(c2ccc(F)cc2)CC1 | 1110 s
15 | CCN1CCCCc2cc(C(=O)NC3CCS(=O)(=O)C3)sc21 (configuration not stated) | 790 s
16 | CC(C)Cn1c(CCNC(=O)c2ccccc2)nc2cccnc21 | 683 s
17 | O=C(NCc1ccc(N2CCOCC2)cc1)C1CCCN(c2cnc3nccnc3c2)C1 (configuration not stated) | 728 s
18 | CCCCOc1ccc(-c2cc3c(N4CCN(CC)CC4)nccn3n2)cc1 | 775 s
19 | COc1ccc(-c2cc3n(n2)CCCN(C(=O)c2cccnc2)C3)cc1 | 665 s
20 | Cc1cccc(-n2c(=O)c3c(cc(C)n3C)n(CC(=O)Nc3ccccc3Cl)c2=O)c1 | 842 s
21 | CC(C)CN1CCN(C(=O)c2cc3c(s2)CCN(C(=O)c2ccc(Cl)cc2)C3)CC1 | 664 s
22 | Cc1cc(C)cc(-c2nc(-c3ccc4c(c3)oc(=O)n4C(C)C)no2)c1 | 1140 s

Row | Compound | RP-LC retention time
23 | Cc1ccc(C)c(N2C(=O)CN(S(C)(=O)=O)CC2(C)C(=O)NCc2ccccc2)c1 (configuration not stated) | 809 s
24 | Cc1ccc(-c2ncc(C(=O)NCCN3CCCCCC3)c(-c3ccncc3)n2)cc1 | 637 s
25 | CC(C)Oc1ccc(CNC(=O)C2CCCN(c3ccc(=O)n(-c4cccc(Cl)c4)n3)C2)cc1 (configuration not stated) | 946 s
26 | COc1ccc(-c2nnc(COc3cccc(NC(=O)C4CCC4)c3)o2)cc1 | 901 s
27 | CCc1ccccc1NC(=O)Cn1c(C)nc2c(sc3nc(-c4ccccc4)ccc32)c1=O | 1080 s
28 | Cc1nc(CSc2cc(-c3ccccc3)ncn2)cs1 | 907 s
29 | O=C(c1ccco1)N1CCCn2cc(-c3ccccc3F)nc21 | 639 s
30 | COc1ccc(-n2ccn3cc(-c4ccc(F)cc4F)nc3c2=O)cc1 | 716 s
31 | O=C(OCc1cccnc1)c1cn(-c2cccc(F)c2)c(=O)c2ccccc12 | 753 s
32 | CCOc1ncccc1CNC(=O)C1CCC1 | 696 s
33 | Cc1nc(N2CCN(Cc3ccccc3)CC2)nc2c1C(=O)CC(c1ccc(Cl)cc1)C2 (configuration not stated) | 825 s
34 | CCOC(=O)COc1cc(-c2ccccc2)nc2ccc(NC(=O)COc3ccc(F)cc3)cc12 | 868 s
35 | CN(C)c1cc(-n2cnc(C(=O)NCc3cccc(Cl)c3)c2)ncn1 | 793 s
36 | COc1ccc(CC(=O)Nc2ccc3c(c2)Sc2ncccc2C(=O)N3C)cc1 | 748 s
37 | CCOC(=O)c1cnc2nc(C)ccc2c1Nc1ccc(S(N)(=O)=O)cc1 | 589 s
38 | Cc1sc2ccn(C)c(=O)c2c1C(=O)N1CCN(c2cccc(Cl)c2)CC1 | 844 s
39 | COc1ccc(NC(=O)C2CC(=O)N(c3ccc4oc(C)nc4c3)C2)cc1Cl (configuration not stated) | 742 s
40 | CCCc1noc(-c2ccnc(-n3cnc(C(=O)N4CCCC4)c3)c2)n1 | 789 s
41 | O=C(NCc1ccco1)C1CCN(c2nc3ccc(-c4cccnc4)nc3s2)CC1 | 644 s
42 | CC1(C)COc2ccc(NC(=O)NCc3cccc4ccccc34)cc2NC1=O | 602 s
43 | Cc1ccc(Nc2c(-c3ccc(Cl)cc3)nc3nc(C)cc(C)n23)cc1 | 827 s
44 | Cc1ccc(Cn2c(C(=O)NCCc3ccccc3)cc3sccc32)cc1 | 1180 s

Row | Compound | RP-LC retention time
45 | CC(=O)N1CCN(c2ccc(NC(=O)c3ccccc3Br)cc2)CC1 | 646 s
46 | COc1cccc(C(=O)CC2(O)C(=O)Nc3c(C)cccc32)c1 (configuration not stated) | 728 s
47 | CCOc1ccc(-n2nnc3c(=O)n(C/C=C/c4ccccc4)cnc32)cc1 | 969 s
48 | O=C1NC2(CCN(C(=O)c3ccc4c(c3)OCO4)CC2)Nc2cc(Cl)ccc21 | 708 s
49 | O=c1c2nnc3c(-c4ccccc4)cnn3c2ccn1CCc1c[nH]c2ccccc12 | 917 s
50 | Cc1nc2nc3c(cn2n1)C(=O)CCC3 | 593 s
51 | O=C(Nc1ccc(F)cc1Cl)C1CCc2sc(C(=O)N3CCOCC3)cc2C1 (configuration not stated) | 748 s
52 | CCOc1ccc(N2C(=O)N(c3ccc(Cl)c(Cl)c3)C3CS(=O)(=O)CC32)cc1 (configuration not stated) | 915 s
53 | Cc1cccc(Sc2nccnc2N2CCC(C(=O)NCC3CCCO3)CC2)c1 (configuration not stated) | 888 s
54 | CC(C)NC(=O)c1ccc2cnn(C)c2c1 | 667 s
55 | N#Cc1cccc(NC(=O)C2CCCN(S(=O)(=O)c3c[nH]c(C(=O)N4CCCC4)c3)C2)c1 (configuration not stated) | 777 s
56 | COc1ccccc1NC(=O)Cn1nc2c(Oc3ccccc3Cl)nccn2c1=O | 908 s
57 | Cc1ccc(C)c(NC(=O)CN2C(=O)C3CCCCN3c3ccc(S(=O)(=O)N(C)C)cc32)c1 (configuration not stated) | 955 s
58 | CSc1nc(N2CCCC2)c2cnn(CCNC(=O)c3ccc(=O)[nH]c3)c2n1 | 593 s
59 | O=S(=O)(c1ccccc1)N1CC(c2nnc(-c3ccncc3)o2)C2(CCOCC2)C1 (configuration not stated) | 660 s
60 | COC(=O)c1cnc2nc(C)ccc2c1Nc1cc(F)ccc1C | 689 s
61 | Cc1ccc(Nc2c(-c3ccc(N(C)C)cc3)nc3cccc(C)n23)cc1 | 816 s
62 | CCCn1cnc2ccc(-c3noc(CNC(=O)c4ccccc4)n3)cc21 | 655 s
63 | CC(O)(CS(=O)(=O)c1ccc(F)cc1)C(=O)Nc1ccc(C#N)c(C(F)(F)F)c1 (configuration not stated) | 992 s
64 | O=C(CCC[C@@H]1[C@H]2CCCN3CCC[C@@H](CN1C(=O)COc1ccc(Cl)cc1)[C@@H]23)N1CCOCC1 | 626 s
65 | CCOc1ccc(S(=O)(=O)N2CCCC(C(=O)Nc3ccccc3)C2)cc1 (configuration not stated) | 999 s
66 | CCn1c(=O)c(C)nc2cc(-c3noc(Cc4ccccc4Br)n3)ccc21 | 1070 s

Row | Compound | RP-LC retention time
67 | Cc1ncc2c(n1)C[C@@H]1CC[C@H]2N1C(=O)Cc1ccccc1 | 648 s
68 | CCc1ccc(CNC(=O)C2CCCN(c3nccnc3Oc3ccc(C)cc3)C2)cc1 (configuration not stated) | 1150 s
69 | Cc1nn(CC(=O)N2CCCC2)c(=O)c2nc(-c3ccccc3)sc12 | 756 s
70 | CCN1CCC(N(Cc2cccs2)C(=O)Nc2cccc(Cl)c2)CC1 | 679 s
71 | COc1ccc(-c2nc3cc(C)ccn3c2Nc2ccc3c(c2)OCCO3)cc1 | 714 s
72 | Cc1ccc(N2C=NS(=O)(=O)c3cccnc32)cc1F | 815 s
73 | CCc1nnc(-c2ccc3ccn(CC(=O)NCc4ccccc4OC)c3c2)o1 | 851 s
74 | Cc1ccc(-c2cc3c4nnc(SCC(=O)Nc5cc(F)ccc5C)n4ccn3n2)cc1C | 1080 s
75 | Cc1ccc(NC(=O)C2CCN(S(=O)(=O)c3cc(-c4noc(C5CC5)n4)ccc3C)CC2)nc1 | 868 s
76 | CCN1CCN(c2nc3cc(C(=O)OC)ccc3c(=O)n2-c2ccc(F)c(Cl)c2)CC1 | 655 s
77 | O=C(NCc1ccc(F)cc1)c1cn(-c2ccc(NC(=O)C3CC3)cn2)cn1 | 748 s
78 | Cc1ccc(C)c(CS(=O)(=O)N2CCC(CN3CCCC(C)C3)CC2)c1 (configuration not stated) | 723 s
79 | CCOc1ccccc1-c1noc(Cn2cnc3c(cnn3-c3ccc(C)c(Cl)c3)c2=O)n1 | 1230 s
80 | Cc1ccc(NC(=O)Cn2c(C)nc3cc4c(cc32)OCCO4)c(C)c1 | 668 s
81 | CC(C)n1c2ccccc2c2nnc(SCC(=O)Nc3nc(-c4ccccc4)cs3)nc21 | 1040 s
82 | O=C1CC(c2nc(-c3ccccc3F)no2)CN1c1cccc(Cl)c1 (configuration not stated) | 977 s
83 | CCC1Oc2ccc(S(=O)(=O)N3CCC(C(=O)N(C)c4cccc(C)c4)CC3)cc2NC1=O (configuration not stated) | 872 s
84 | Cc1cccc(N(C)C(=O)CCS(=O)(=O)c2ccc3c(c2)CC(C)N3C(=O)C2CC2)c1 (configuration not stated) | 807 s
85 | CCOc1ccccc1-c1nc(-c2ccc3oc(CC)nc3c2)no1 | 1210 s
86 | CNc1cccnc1OC1CCN(S(=O)(=O)c2ccc3c(c2)CCC3)C1 (configuration not stated) | 765 s
87 | CCn1c(C(=O)NCc2ccccc2OC)cc2sc(Cl)cc21 | 1130 s
